These results are taken from patent US10865222B2, “Neisseria gonorrhoeae therapeutic based on CMP-nonulosonate sugars” (priority 2014, dated 2020).

Entries after “also recorded” stand apart in the source; their conditions may differ.

One assay deals with N. gonorrhoeae F62 ΔIgtD. Format: cell-based. The following applies: for Serum resistance: summary Table 1; for bacterial survival / serum resistance: all serum concentrations tested (10, 6.7, 3.3%), 30 μM; for serum resistance mediated by CMP-Neu5Ac: analogue 20, 2 or 0.2 μg/ml added 15 min after CMP-Neu5Ac 20 μg/ml, grown 2 h; for killing of bacteria made serum resistant by CMP-Neu5Ac: analogue added 120 min after CMP-Neu5Ac, data not shown. On the set-up: key to Serum resistance: high: >100% survival in 10% serum; low: >100% survival in 3.3% serum and <10% survival in 10% serum. How it is done:
FIG. 2. […] N. gonorrhoeae F62 ΔIgtD was grown in media alone (no CMP-sialic acid added), or media that contained 20 μg/ml (˜30 μM) of each of the indicated CMP-nonulosonates. Resistance of bacteria to complement-dependent killing in the presence of 3.3%, 6.7% or 10% normal human serum (NHS) was measured in serum bactericidal assays.
FIG. 5. […] N. gonorrhoeae F62 ΔIgtD was suspended in media containing 20 μg/ml (˜30 μM) CMP-Neu5Ac. Following 15 min of incubation at 37° C., CMP-Neu5Ac9Az or CMP-Leg5Ac7Ac (at concentrations of 20, 2 or 0.2 μg/ml final) were added and bacteria were incubated for 2 h. Serum bactericidal assays were then performed using 3.3% (solid black bars) or 10% (hatched bars) NHS. Controls included bacteria in media that lacked any CMP-nonulosonate, or bacteria that were incubated in CMP-Neu5Ac only. Y-axis, % survival.
We next determined the effects of incorporation of the CMP salts of five structural analogues of Neu5Ac (Neu5Gc, Neu5Ac9Ac, Neu5Ac9Az, Neu5Gc8Me and Leg5Ac7Ac) on the ability of N. gonorrhoeae F62 ΔIgtD to resist complement-dependent killing by normal human serum at concentrations of 10, 6.7 or 3.3%. Bacteria were grown either in media alone, or media supplemented with 30 μM (˜20 μg/ml) of each of the CMP-nonulosonates.
The ability of two of the CMP-nonulosonates, CMP-Neu5Ac9Az and CMP-Leg5Ac7Ac, to counter the ability of CMP-Neu5Ac to enhance serum resistance of N. gonorrrhoeae was then examined. The analogues were added at concentrations of 20, 2 or 0.2 μg/ml to growth media 15 min after the addition of CMP-Neu5Ac (20 μg/ml) to F62 ΔIgtD.
Serum bactericidal assays were performed as described previously (11). Bacteria harvested from an overnight culture on chocolate agar plates were grown in liquid media containing the specified concentration of CMP-nonulosonate as specified for each experiment. Approximately 2000 CFU of F62 ΔIgtD were incubated with NHS (concentration specified for each experiment). The final reaction volumes were maintained at 150 μl. […]

Assay [1] concerns Ng 398078 (expresses P^K-like structure on HepI). Put plainly: Complement resistance of Ng 398078 (serum bactericidal assay). The following applies: 10% normal human serum. Format: cell-based, N. gonorrhoeae. As to the method: CMP-Leg5Ac7Ac and CMP-Neu5Ac9Az also counteracted CMP-Neu5Ac-mediated serum resistance of a P^K LOS expressing isolate called 398078 (Table 4).
Serum bactericidal assays were performed as described previously (11). Bacteria harvested from an overnight culture on chocolate agar plates were grown in liquid media containing the specified concentration of CMP-nonulosonate as specified for each experiment. Approximately 2000 CFU of F62 ΔIgtD were incubated with NHS (concentration specified for each experiment). The final reaction volumes were maintained at 150 μl. Aliquots of 25 μl of reaction mixtures were plated onto chocolate agar in duplicate at the beginning of the assay (t0) and again after incubation at 37° C. for 30 min (t30). Survival was calculated as the number of viable colonies at t30 relative to t0.

The mark [2] stands for this setting: CMP-NulO 20 μg/ml added to media 15 min after CMP-Neu5Ac 20 μg/ml.

In the assay with N. gonorrhoeae F62 ΔIgtD (CMP-Neu5Ac 20 μg/ml, 32 min exposure, 10% NHS), `CC(=O)NC1C(O)CC(OP(=O)(O)OCC2OC(n3ccc(N)nc3=O)C(O)C2O)(C(=O)O)OC1C(O)C(O)CO` [CMP-Neu5Ac, CMP-5-acetamido-3,5-dideoxy-D-glycero-D-galacto-nonulosonic acid, reference compound] came in with a bacterial survival of about 42%. For the same molecule, the “resistance to 10% serum” value in the assay on N. gonorrhoeae F62 ΔIgtD (CMP-nonulosonate 3 μM (~2 μg/ml), 10% serum) was “conferred resistance”. For the same molecule, in the assay with N. gonorrhoeae F62 ΔIgtD, the Serum resistance entry was “high^B (>100% survival in 10% serum)”. Besides, in assay [1] (CMP-NulO alone at 20 μg/ml), the “% survival [mean (range)]” value is given as 57.5 (1.6) %.

As for `COC(CO)C(O)C1OC(OP(=O)(O)OCC2OC(n3ccc(N)nc3=O)C(O)C2O)(C(=O)O)CC(O)C1NC(=O)CO` [CMP-Neu5Gc8Me, CMP-5-hydroxyacetamido-8-O-methyl-3,5-dideoxy-D-glycero-D-galacto-nonulosonic acid], in the assay on N. gonorrhoeae F62 ΔIgtD, the Serum resistance result was “low”.

As to `CC(=O)N[C@H]1[C@H]([C@H](O)[C@H](O)COC(C)=O)OC(OP(=O)(O)OC[C@H]2O[C@@H](n3ccc(N)nc3=O)[C@H](O)[C@@H]2O)(C(=O)O)C[C@@H]1O` (stereo partly drawn) [CMP-Neu5Ac9Ac, CMP-5-acetamido-9-O-acetyl-3,5-dideoxy-D-glycero-D-galacto-nonulosonic acid], the Serum resistance result in the assay on N. gonorrhoeae F62 ΔIgtD is “low^C”.

Turning to “5,7-diacetamido-3,5,7,9-tetradeoxy-D-glycero-D-galacto-nonulosonic acid [CMP-Leg5Ac7Ac]”, in the assay on N. gonorrhoeae F62 ΔIgtD, the “bacterial survival / serum resistance” value is “did not increase bacterial survival”, the “serum resistance mediated by CMP-Neu5Ac” value is recorded as “blocked serum resistance; also recorded: completely blocked”, the “killing of bacteria made serum resistant by CMP-Neu5Ac” value was “did not induce any killing” and the Serum resistance result is listed as “none”. Besides, the “% survival [mean (range)]” value in assay [1] (setting [2]) was 0 (0) %. The “% survival [mean (range)]” value in assay [1] (CMP-NulO alone at 20 μg/ml) was 0 (0) %.

For the molecule `CC(=O)N[C@H]1[C@H]([C@H](O)[C@H](O)CN=[N+]=[N-])OC(OP(=O)(O)OC[C@H]2O[C@@H](n3ccc(N)nc3=O)[C@H](O)[C@@H]2O)(C(=O)O)C[C@@H]1O` (stereo partly drawn) [CMP-Neu5Ac9Az, CMP-5-acetamido-9-azido-3,5,9-trideoxy-D-glycero-D-galacto-nonulosonic acid], in the assay on N. gonorrhoeae F62 ΔIgtD, the “bacterial survival / serum resistance” value is listed as “did not increase bacterial survival”, the “serum resistance mediated by CMP-Neu5Ac” value was “blocked serum resistance; also recorded: completely blocked”, the “killing of bacteria made serum resistant by CMP-Neu5Ac” value is on record as “did not induce any killing” and the Serum resistance entry is “none”. In assay [1] (setting [2]), the “% survival [mean (range)]” value is 7.5 (5.2) %. Also, the “% survival [mean (range)]” value in assay [1] (CMP-NulO alone at 20 μg/ml) is listed as 7.1 (2.3) %.
